Experimental data as given in patent publication US6649402B2, “Microfabricated microbial growth assay method and apparatus” (Wisconsin Alumni Research Foundation, priority 2001, dated 2003).

Tested on: E. coli K-12 MG 1655
Experiment: microbial growth assay by impedance (capacitance and resistance) measurement in 30 μl wells
Format: cell-based
Conditions: 37° C.
Procedure: As an example of the utilization of the apparatus 20 of FIGS. 1 and 2, a single colony of E. coli K-12 MG 1655 was used to inoculate five ml of Luria Broth (LB) which was grown overnight at 37° C. with constant aeration. A 1% inoculum was used to subculture in fresh LB medium and grew to OD600 of 0.5 (measured by a Beckman DU-20 spectrophotometer). 15 μl of cell culture was mixed with 15 μl of LB medium in samples with and without ampicillin (100 μg/ml), and aliquoted into the wells 22. In addition, an equal volume of LB medium (30 μl) with ampicillin was aliquoted into an additional well to function as a negative control.
The switch/control unit 34 was used to switch the connection of the LCR meter 36 to the conductors 30 and 31 leading to the electrodes of the wells 22 in sequence. A 10 mV rms alternating current signal of varying frequency (between 75 kHz and 30 MHz) was used for electrical excitation and was applied between the electrodes 24 and 25. […] At each frequency, impedance (capacitance and resistance) was measured between the electrodes 24 and 25 for each of the four wells. […] The values of the impedance (assuming a parallel RC equivalent circuit model, resistance and capacitance, R and C) between the electrodes 24 and 25 at each of the cells was recorded periodically over about 16 hours under the control of the computer 41. […]

## CC1(C)S[C@@H]2[C@H](NC(=O)[C@H](N)c3ccccc3)C(=O)N2[C@H]1C(=O)O [ampicillin]
Ampicillin 100 μg/ml in LB medium, measured at 75 kHz and 400 kHz, about 16 hours, relative to control well without bacteria, without ampicillin capacitance increases exponentially
  capacitance (and resistance) between the electrodes at a well containing bacteria over time: remains constant
Ampicillin 100 μg/ml, E. coli in LB medium, impedance readout
  time within which the antibacterial effect can be detected: less than one hour
